Measurements taken from the CheMixHub viscosity set.
± gives the uncertainty stated by the source.

Experiment: xn = mol fraction of the nth substance listed

C1CCCCC1 + CCCCCC
Settings	viscosity [mPa·s]
298.1 K, 101 kPa, x1 = 0.2	0.356 ± 0.026
298.1 K, 101 kPa, x1 = 0.4	0.409 ± 0.03
298.1 K, 101 kPa, x1 = 0.5	0.442 ± 0.032
298.1 K, 101 kPa, x1 = 0.6	0.484 ± 0.035
298.1 K, 101 kPa, x1 = 0.8	0.609 ± 0.043
298.15 K, 100 kPa, x1 = 0.201	0.34 ± 0.0039
298.15 K, 100 kPa, x1 = 0.4	0.4016 ± 0.0046
298.15 K, 100 kPa, x1 = 0.6	0.4934 ± 0.0056
298.15 K, 100 kPa, x1 = 0.8	0.6328 ± 0.0072
298.15 K, 101 kPa, x2 = 0.0684	0.791 ± 0.01
298.15 K, 101 kPa, x2 = 0.1504	0.6857 ± 0.0091
298.15 K, 101 kPa, x2 = 0.212	0.6386 ± 0.0085
298.15 K, 101 kPa, x2 = 0.2942	0.5608 ± 0.0076
298.15 K, 101 kPa, x2 = 0.3691	0.5182 ± 0.007
298.15 K, 101 kPa, x2 = 0.4469	0.4531 ± 0.0062
298.15 K, 101 kPa, x2 = 0.5365	0.4026 ± 0.0056
298.15 K, 101 kPa, x2 = 0.5903	0.3809 ± 0.0053
298.15 K, 101 kPa, x2 = 0.6702	0.3605 ± 0.0051
298.15 K, 101 kPa, x2 = 0.7634	0.3153 ± 0.0045
298.15 K, 101.33 kPa, x1 = 0.0907	0.3272 ± 0.0034
298.15 K, 101.33 kPa, x1 = 0.0958	0.317 ± 0.003
298.15 K, 101.33 kPa, x1 = 0.1714	0.3405 ± 0.0089
298.15 K, 101.33 kPa, x1 = 0.1981	0.341 ± 0.003
298.15 K, 101.33 kPa, x1 = 0.274	0.3831 ± 0.0038
298.15 K, 101.33 kPa, x1 = 0.2742	0.367 ± 0.0096
298.15 K, 101.33 kPa, x1 = 0.2966	0.367 ± 0.003
298.15 K, 101.33 kPa, x1 = 0.3645	0.4001 ± 0.0039
298.15 K, 101.33 kPa, x1 = 0.3986	0.397 ± 0.003
298.15 K, 101.33 kPa, x1 = 0.4469	0.4276 ± 0.0041
298.15 K, 101.33 kPa, x1 = 0.4498	0.4234 ± 0.011
298.15 K, 101.33 kPa, x1 = 0.4972	0.436 ± 0.003
298.15 K, 101.33 kPa, x1 = 0.533	0.4643 ± 0.0044
298.15 K, 101.33 kPa, x1 = 0.5873	0.4846 ± 0.013
298.15 K, 101.33 kPa, x1 = 0.5972	0.484 ± 0.004
298.15 K, 101.33 kPa, x1 = 0.6062	0.5023 ± 0.0047
298.15 K, 101.33 kPa, x1 = 0.6783	0.5445 ± 0.005
298.15 K, 101.33 kPa, x1 = 0.6988	0.544 ± 0.004
298.15 K, 101.33 kPa, x1 = 0.752	0.5887 ± 0.015
298.15 K, 101.33 kPa, x1 = 0.7542	0.5997 ± 0.0054
298.15 K, 101.33 kPa, x1 = 0.7993	0.623 ± 0.004
298.15 K, 101.33 kPa, x1 = 0.8297	0.6872 ± 0.006
298.15 K, 101.33 kPa, x1 = 0.8977	0.73 ± 0.005
298.15 K, 101.33 kPa, x1 = 0.9016	0.7533 ± 0.0065
298.15 K, 101.33 kPa, x1 = 0.9034	0.7347 ± 0.019
298.15 K, 101.33 kPa, x1 = 0.9721	0.8499 ± 0.0072
303.15 K, 101 kPa, x1 = 0.1086	0.2975 ± 0.003
303.15 K, 101 kPa, x1 = 0.2169	0.3225 ± 0.0031
303.15 K, 101 kPa, x1 = 0.3006	0.3441 ± 0.0031
303.15 K, 101 kPa, x1 = 0.4057	0.3765 ± 0.0033
303.15 K, 101 kPa, x1 = 0.5025	0.4141 ± 0.0034
303.15 K, 101 kPa, x1 = 0.6021	0.4621 ± 0.0036
303.15 K, 101 kPa, x1 = 0.7058	0.5242 ± 0.0039
303.15 K, 101 kPa, x1 = 0.7982	0.5925 ± 0.0042
303.15 K, 101 kPa, x1 = 0.8984	0.6941 ± 0.0046
303.15 K, 101.33 kPa, x1 = 0.0958	0.301 ± 0.003
303.15 K, 101.33 kPa, x1 = 0.1981	0.324 ± 0.003
303.15 K, 101.33 kPa, x1 = 0.2966	0.349 ± 0.003
303.15 K, 101.33 kPa, x1 = 0.3986	0.378 ± 0.003
303.15 K, 101.33 kPa, x1 = 0.4972	0.412 ± 0.003
303.15 K, 101.33 kPa, x1 = 0.5972	0.454 ± 0.004
303.15 K, 101.33 kPa, x1 = 0.6988	0.511 ± 0.004
303.15 K, 101.33 kPa, x1 = 0.7993	0.58 ± 0.004
303.15 K, 101.33 kPa, x1 = 0.8977	0.672 ± 0.005
308.15 K, 101.33 kPa, x1 = 0.0958	0.288 ± 0.003
308.15 K, 101.33 kPa, x1 = 0.1981	0.307 ± 0.003
308.15 K, 101.33 kPa, x1 = 0.2966	0.33 ± 0.003
308.15 K, 101.33 kPa, x1 = 0.3986	0.357 ± 0.003
308.15 K, 101.33 kPa, x1 = 0.4972	0.389 ± 0.003
308.15 K, 101.33 kPa, x1 = 0.5972	0.428 ± 0.003
308.15 K, 101.33 kPa, x1 = 0.6988	0.479 ± 0.004
308.15 K, 101.33 kPa, x1 = 0.7993	0.543 ± 0.004
308.15 K, 101.33 kPa, x1 = 0.8977	0.623 ± 0.004
323.15 K, 100 kPa, x1 = 0.201	0.266 ± 0.0031
323.15 K, 100 kPa, x1 = 0.4	0.309 ± 0.0035
323.15 K, 100 kPa, x1 = 0.6	0.3703 ± 0.0042
323.15 K, 100 kPa, x1 = 0.8	0.4573 ± 0.0052

CCOC(=O)C(C)Br (stereo unspecified) + CCCCCC
303.15 K, 101 kPa
Settings	viscosity [mPa·s]
x1 = 0.1996	0.372 ± 0.0047
x1 = 0.4039	0.5117 ± 0.0052
x1 = 0.5022	0.5973 ± 0.0055
x1 = 0.5991	0.7048 ± 0.0059
x1 = 0.7961	1.012 ± 0.0071
